Results from US20170368134A1, “PROTEASOME INHIBITORS FOR TREATING A DISORDER RELATED TO AN ACCUMULATION OF NON-DEGRADED ABNORMAL PROTEIN OR A CANCER” (UNIVERSITÉ D'AIX-MARSEILLE, priority 2015, published 2017).
Peptide text beside a SMILES is read from it. * marks the point of attachment. Cbz = O=C(OCc1ccccc1)*

How the values were obtained:
progerin = test: Western blot of progerin levels in HGPS fibroblasts; type: cell-based, human; settings: for reduction in progerin amounts: normalized with tubulin, vs DMSO-treated HGPS cells
Experimental: HGPS fibroblasts (AG01972: person, AG11498: person) were obtained from the Coriell Cell Repository. Cells were cultured in Dulbecco's modified Eagle's medium (Life Technologies) supplemented with 15% fetal bovine serum (Life Technologies), 2 mM L-glutamine (Life Technologies) and 1× penicillin-streptomycin (Life Technologies) at 37° C. in a humidified atmosphere containing 5% CO2. […]
Total fibroblast proteins were extracted in 200 μL of NP40 Cell Lysis buffer (Invitrogen, Carlsbad, Calif.) containing Protease and Phosphatase Inhibitor Cocktail (Thermo Scientific). Alternatively, cells were lysed with urea (8 M urea, 5 mM dithiothreitol, 150 mM NaCl, 50 mM Tris-Cl pH 7.5, protease and phosphatase Inhibitor Cocktail (Thermo Scientific)). Cells were sonicated twice (30 sec each), incubated at 4° C. for 30 minutes and then centrifuged at 10,000 g for 10 minutes. Protein concentration was evaluated with the bicinchoninic acid technique (Pierce BCA Protein Assay Kit), absorbance at 562 nm is measured using nanodrop 1000 (Thermo Fisher Scientific Inc.) Equal amounts of proteins (40 μg) were loaded onto 10% Tis-Glycine gel (Criterion™ XT precast gel) using XT Tricine running Buffer (Biorad, USA). After electrophoresis, gels were electro transferred onto nitrocellulose membranes or Immobilon-FL polyvinylidene fluoride membranes (Millipore), blocked in Odyssey Blocking Buffer diluted 1:1 in PBS for 1 hour at room temperature, and incubated overnight at 4° C. or 2 hours at room temperature with various primary antibodies. Blots were washed with TBS-T buffer [20 mM tris (pH 7.4), 150 mM NaCl, and 0.05% Tween 20] and incubated with 1:10,000 IR-Dye 800-conjugated secondary donkey anti-goat or IR-Dye 700-conjugated secondary anti-mouse antibodies (LI-COR Biosciences) in Odyssey blocking buffer (LI-COR Biosciences). For IR-Dye 800 and IR-Dye 700 detection, an Odyssey Infrared Imaging System (LI-COR Biosciences) was used. GAPDH, α-tubulin or β-actin were used as a total cellular protein loading control.

lamin A mRNA = test: qRT-PCR of lamin A transcripts in HGPS cells; type: cell-based, human; settings: 10 μM MG132 time-course
Experimental: Total RNA was isolated using the RNeasy plus extraction kit (Qiagen, Valencia, Calif.). 1 μg of RNA was reverse transcribed using the High Capacity cDNA Reverse Transcription Kit (Applied Biosystems). Real time PCR amplification was carried out with the TaqMan® Gene Expression Master Mix (Applied Biosystems) on a LightCycler 480 (Roche, Germany) using pre-designed primers for GAPDH (Hs00266705_g1), Progerin (F: […] (SEQ ID NO:3) R: […] (SEQ ID NO:4) and probe: […] (SEQ ID NO:5)), Lamin A (F: […] (SEQ ID NO:6) R: […] (SEQ ID NO:7) and probe: […] (SEQ ID NO:8)) and lamin C (F: […] (SEQ ID NO:9) R: […] (SEQ ID NO:10) and probe: […] (SEQ ID NO:11)) (Applied Biosystems) using the program: UNG incubation at 50° C. for 2 minutes, initial denaturation at 95° C. for 10 minutes, 40 cycles of amplification: denaturation at 95° C. for 15 seconds and annealing at 60° C. for 1 minute. All PCR reactions were performed in triplicate. Threshold cycle (Ct) values were used to calculate relative mRNA expression by the 2-ΔΔ^T relative quantification method with normalization to GAPDH expression.

HGPS cell lines = test: Quantitation of abnormal nuclear morphology; type: cell-based, human; settings: 10 μM MG132, 48 h
Experimental: The percentage of normal nuclei (nuclei with a smooth oval shape) and abnormal nuclei (nuclei with blebs, irregular shape, or multiple folds) was calculated by manual blind counting. A representative image and the mean values of 3 different experiments are shown. *P<0.05.
Fibroblasts from three HGPS patients (AG01972, AG11498, 5968) and two normal individuals (8471, 8498) were cultured with DMEM medium containing 10 μM MG132, or the same volume of vehicle (DMSO, 0.025% v/v) for 48 h. Cells stained for lamin A/C or DAPI were examined by fluorescence microscopy with an Axioplan 2 imaging microscope (Carl Zeiss). For quantitation of abnormal nuclear morphology, the percentage of normal nuclei (nuclei with a smooth oval shape) and abnormal nuclei (nuclei with blebs, irregular shape, or multiple folds) was calculated by manual blind counting. At least 200 fibroblast nuclei were randomly selected for each cell line and examined in two independent experiments. Results are expressed graphically as the average percentage of the total nuclei counted.

SRSF-1 = SRSF-1 levels in HGPS fibroblasts, iPS-MSC and iPS-VSMC; type: cell-based, human; settings: data not shown
Experimental: Generation of induced pluripotent stem cells (iPS) by reprogramming was carried out using fibroblasts isolated from HGPS patient biopsies performed in the Assistance Publique Hopitaux de Marseille (13-8243) or provided by Coriell Institute (Camden, USA) (AG01972). Cell lines were reprogrammed to iPSC using Yamanaka's original method based on retrovirus-mediated transfection of four transcription factors, namely Oct3/4, Sox2, c-Myc, and Klf4 (41). The iPSC lines were amplified up to the 15th passage before differentiation.
HGPS iPSC were grown on STO mouse fibroblasts, inactivated with […] mitomycin C, seeded at 30,000/cm2 and grown as previously described (42). For differentiation, iPSC were differentiated into mesenchymal stem cells (MSC-iPSC) using directed protocols for differentiation previously published (43-45). VSMC were obtained from iPSC by fluorescent-activated cell sorting (FACS) separation of CD31+ cells (46).

lamin A = test: Intramuscular MG132 in Lmna G609G/G609G mice, lamin A in gastrocnemius muscle; type: in vivo, mouse
Experimental: (A) Lamin A, progerin, lamin C and SRSF-1 specific bands, corresponding to DMSO-treated left muscle (−) and 1 μg/Kg MG132-treated right muscle (+), were quantified by ImageJ software and their expression levels were normalized to GAPDH values.
Knock-in mouse model (Lmna^G609G/G609G) carrying the c.1827C>T (p.Gly609Gly) mutation in the endogenous Lmna gene, corresponding to the human HGPS mutation c.1824C>T (p.Gly609Gly) have been described previously (31). MG132 (1 or 10 μg/Kg body weight) was injected under isoflurane anesthesia into the right gastrocnemius muscle of […] homozygous knock-in mice (Lmna^G609G/G609G) 3 times per week for 2 weeks. Contralateral muscle served as control (DMSO). MG132 was dissolved in dimethyl sulfoxide (DMSO) and then diluted in 100 μl sterile phosphate-buffered saline (PBS) for intramuscular injection. […] Animal experiments have been carried out in compliance with the European guidelines for the care and use of laboratory animals (EU directive 2010/63/EU) and in accordance with the recommendations provided by the guide for the care and use of the laboratory animals of the French national Institute for Health and Medical Research (INSERM) and the ethical committee of Aix-Marseille University.

CC(C)C[C@@H](C=O)NC(=O)[C@H](CC(C)C)NC(=O)[C@H](CC(C)C)NC(=O)OCc1ccccc1 [MG132, Z-Leu-Leu-Leu-al] (Cbz-Leu-Leu-Leu-aldehyde)
reduction in progerin amounts (progerin; 10 μM MG132, 6 h): 31% | reduction in progerin amounts (progerin; 10 μM MG132, 24 h): 58% | reduction in progerin amounts (progerin; 10 μM MG132, 48 h): 65% | progerin level at longer treatment (progerin; cells solubilized with urea, 72 h of MG132 treatment): progerin reappears after 72 h of treatment | lamin A transcript levels (lamin A mRNA): significant decrease of lamin A transcripts | nuclear shape abnormalities (HGPS cell lines): improves nuclear shape abnormalities | SRSF-1 levels (SRSF-1): decreased | lamin A level in treated muscle (lamin A; 1 μg/Kg intramuscular, change not significant): small increase in lamin A | lamin A level in treated muscle (lamin A; 10 μg/kg body weight intramuscular): remain constant or increase slightly
